According to US8389508B2 (Glaxo Group Limited, priority 2010, dated 2013):
Counter-ions that a name gives are not always drawn.

What was measured:
[1] = molecular target: T1, human Endothelial Differentiation Gene 1 (EDG1), S1P1 receptor (Homo sapiens, UniProt P21453); test: S1P1 Assay (Tango EDG1-bla/U2OS beta-lactamase reporter, agonist dose response); type: cell-based; conditions: EDG1-bla/U2OS cells, blue/green emission ratio, 10 point dose response, free base or salt form; read-out: pEC50 (S1P1 assay) (converted)
T1 construct: TEV protease site; Gal4-VP16 transcription factor; expressed in transfected cells; host or cells: EDG1-bla/U2OS (Tango GPCR-bla U2OS parental cell line)
Method: Recombinant EDG1-bla/U2OS cells (contain the human Endothelial Differentiation Gene 1 (EDG1) linked to a TEV protease site and a Gal4-VP16 transcription factor stably integrated into the Tango GPCR-bla U2OS parental cell line) were harvested from growth medium and passaged into assay medium (Invitrogen Freestyle Expression Medium). The cells were starved for 24 hours at 37° C., 5% CO2, harvested and resuspended in assay medium at a density of ˜200,000 cells/ml. All test compounds were dissolved in DMSO at a concentration of 10 mM and were prepared in 100% DMSO to provide 10 point dose response curves. Test compounds in the free base or in a salt form were prepared by Velocity11 Bravo automation (Agilent) were added to wells in columns 2-11 and 13-22; DMSO was added to wells in columns 12 and 23 as unstimulated controls and assay medium was added to wells in columns 1 and 24 as cell-free controls. An S1P1 agonist was added to wells in row 2, columns 2-11 as stimulated controls and test compounds were added to wells in row 2, columns 13-22 and rows 3-15, columns 2-11/13-22 (row 1 and 16 were empty and not used). Compounds in solution were added to the assay plate (Greiner 781090) using an Echo (Labcyte) dose-response program (50 nl/well). The unstimulated and cell-free controls were loaded with 50 nl/well pure DMSO to ensure that the DMSO concentration was constant across the plate for all assays. 50 μl of the cell suspension was added to each well in columns 2-23 of the plate (˜10,000 cells per well). 50 μl of assay medium was added to each well in the cell-free controls (columns 1 and 24). The cells were incubated overnight at 37° C./5% CO2.
(§1) 10 μl of 6× substrate mixture (LiveBLAzer™-FRET B/G substrate (CCF4-AM) Cat # K1096 from Invitrogen, Inc.) was added to each well using Bravo automation and the plates incubated at room temperature for 2 h in the dark. The plate was finally read on EnVision using one excitation channel (409 nm) and two emission channels (460 nm and 530 nm).
(§2) The blue/green emission ratio (460 nm/530 nm) was calculated for each well, by dividing the background-subtracted Blue emission values by the background-subtracted Green emission values. The dose response curve is based on sigmoidal dose-response model. All ratio data was normalized based upon the maximum emission ratio of positive control and minimum emission ratio of negative control (DMSO) on each plate. The intrinsic activity (IA) of each compound is defined as relative response normalised to a reference compound, whose maximum response is defined as 100% after curve fitting.

[2] = molecular target: T2, human Endothelial Differentiation G-protein Coupled Receptor 3 (EDG3), S1P3 receptor (Homo sapiens, UniProt Q99500); test: S1P3 Assay (GeneBLAzer EDG3-Ga15-NFAT-bla HEK 293T beta-lactamase reporter, agonist dose response); type: cell-based; conditions: EDG3-Ga15-NFAT-bla HEK 293T cells, blue/green emission ratio, 10 point dose response, free base or salt form; read-out: pEC50 (S1P3 assay) (converted)
T2 construct: expressed in transfected cells; host or cells: GeneBLAzer EDG3-Ga15-NFAT-bla HEK 293T
Method: GeneBLAzer EDG3-Ga15-NFAT-bla HEK 293T cells (contain the human Endothelial Differentiation G-protein Coupled Receptor 3 (EDG3) and a beta-lactamase reporter gene under control of a NFAT response element and a promiscuous G Protein, Ga15, stably integrated into the GeneBLAzer Ga15-NFAT-bla HEK 293T cell line) were harvested from growth medium and suspended in assay medium (90% DMEM, 10% Charcoal-stripped FBS, 0.1 mM NEAA, 25 mM HEPES (pH 7.3), 100 U/ml penicillin, 100 μg/ml streptomycin) at a density of […]. All test compounds were dissolved in DMSO at a concentration of 10 mM and were prepared in 100% DMSO to provide 10 point dose response curves. Test compounds in the free base or in a salt form were prepared by Velocity 11 Bravo automation (Agilent) were added to wells in columns 2-11 and 13-22; DMSO was added to wells in columns 12 and 23 as unstimulated controls and assay medium was added to wells in columns 1 and 24 as cell-free controls. An S1P3 agonist was added to wells in row 2, columns 2-11 as stimulated controls and test compounds were added to wells in row 2, columns 13-22 and rows 3-15, columns 2-11/13-22 (row 1 and 16 were empty and not used). Compounds in solution were added to the assay plate (Greiner 781090) using an Echo (Labcyte) dose-response program (50 nl/well). The unstimulated and cell-free controls were loaded with 50 nl/well pure DMSO to ensure that the DMSO concentration was constant across the plate for all assays.
50 μl of the cell suspension was added to each well in columns 2-23 of the plate (˜10,000 cells per well). 50 μl of assay medium was added to each well in the cell-free controls (columns 1 and 24). The cells were incubated overnight at 37° C./5% CO2.
as §1, §2

T2 sequence (Q99500 whole entry): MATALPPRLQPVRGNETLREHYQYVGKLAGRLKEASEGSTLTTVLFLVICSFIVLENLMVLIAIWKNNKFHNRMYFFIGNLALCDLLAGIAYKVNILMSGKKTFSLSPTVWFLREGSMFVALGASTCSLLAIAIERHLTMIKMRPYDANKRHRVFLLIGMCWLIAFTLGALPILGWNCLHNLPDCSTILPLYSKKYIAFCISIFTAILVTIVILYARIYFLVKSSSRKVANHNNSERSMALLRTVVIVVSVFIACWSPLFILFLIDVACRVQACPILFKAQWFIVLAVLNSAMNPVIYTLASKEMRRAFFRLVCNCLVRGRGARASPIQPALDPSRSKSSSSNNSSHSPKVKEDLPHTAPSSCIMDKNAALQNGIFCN
T1 sequence (P21453 whole entry, the tested form may be a part): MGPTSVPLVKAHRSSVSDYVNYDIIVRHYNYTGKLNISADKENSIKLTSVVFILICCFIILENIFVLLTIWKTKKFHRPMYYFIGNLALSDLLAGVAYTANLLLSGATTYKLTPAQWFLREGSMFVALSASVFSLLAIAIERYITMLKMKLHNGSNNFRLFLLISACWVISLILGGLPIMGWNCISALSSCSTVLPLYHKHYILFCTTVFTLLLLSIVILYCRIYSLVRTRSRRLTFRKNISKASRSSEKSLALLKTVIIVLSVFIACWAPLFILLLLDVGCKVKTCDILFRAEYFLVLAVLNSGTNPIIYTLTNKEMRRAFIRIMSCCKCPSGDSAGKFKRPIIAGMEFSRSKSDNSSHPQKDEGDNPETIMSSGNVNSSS

Structure (SMILES)	EC50 [1]	EC50 [2]
CCc1c(CN2CC(C(=O)O)C2)cccc1-c1nnc(-c2ccc(OC(C)C)c(C(F)(F)F)c2)s1 [Example 2, 1-[(2-ethyl-3-{5-[4-[(1-methylethyl)oxy]-3-(trifluoromethyl)phenyl]-1,3,4-thiadiazol-2-yl}phenyl)methyl]-3-azetidinecarboxylic acid]	< 1 nM	–
CCc1c(CN2CCC(C(=O)O)CC2)cccc1-c1nnc(-c2ccc(OC(C)C)c(Cl)c2)s1 [Example 3, 1-{[3-(5-{3-chloro-4-[(1-methylethyl)oxy]phenyl}-1,3,4-thiadiazol-2-yl)-2-ethylphenyl]methyl}-4-piperidinecarboxylic acid trifluoroacetate]	–	> 3160 nM
CCc1c(CCN2CC(C(=O)O)C2)cccc1-c1nnc(-c2ccc(OC(C)C)c(Cl)c2)s1 [Example 6, 1-{2-[3-(5-{3-chloro-4-[(1-methylethyl)oxy]phenyl}-1,3,4-thiadiazol-2-yl)-2-ethylphenyl]ethyl}-3-azetidinecarboxylic acid trifluoroacetate]	< 1 nM	–
CCc1c(CN2CCC(C(=O)O)CC2)cccc1-c1nsc(-c2ccc(OC(C)C)c(C#N)c2)n1 [Example 16, 1-{[3-(5-{3-cyano-4-[(1-methylethyl)oxy]phenyl}-1,2,4-thiadiazol-3-yl)-2-ethylphenyl]methyl}-4-piperidinecarboxylic acid trifluoroacetate]	–	> 10000 nM
CCc1c(CN2CC(C(=O)O)C2)cccc1-c1nsc(-c2ccc(OC(C)C)c(C(F)(F)F)c2)n1 [Example 19, 1-[(2-ethyl-3-{5-[4-[(1-methylethyl)oxy]-3-(trifluoromethyl)phenyl]-1,2,4-thiadiazol-3-yl}phenyl)methyl]-3-azetidinecarboxylic acid]	< 1 nM	–
CCc1c(CN2CCC(CC(=O)O)CC2)cccc1-c1nsc(-c2ccc(OC(C)C)c(C(F)(F)F)c2)n1 [Example 20, {1-[(2-ethyl-3-{5-[4-[(1-methylethyl)oxy]-3-(trifluoromethyl)phenyl]-1,2,4-thiadiazol-3-yl}phenyl)methyl]-4-piperidinyl}acetic acid]	–	> 10000 nM
CCc1c(CCN2CCC(C(=O)O)CC2)cccc1-c1nsc(-c2ccc(OC(C)C)c(C(F)(F)F)c2)n1 [Example 21, 1-[2-(2-ethyl-3-{5-[4-[(1-methylethyl)oxy]-3-(trifluoromethyl)phenyl]-1,2,4-thiadiazol-3-yl}phenyl)ethyl]-4-piperidinecarboxylic acid]	< 1 nM	–
CCc1c(CCN2CC(C(=O)O)C2)cccc1-c1nsc(-c2ccc(OC(C)C)c(C(F)(F)F)c2)n1 [Example 22, 1-[2-(2-ethyl-3-{5-[4-[(1-methylethyl)oxy]-3-(trifluoromethyl)phenyl]-1,2,4-thiadiazol-3-yl}phenyl)ethyl]-3-azetidinecarboxylic acid]	< 1 nM	–
CCc1c(CCN2CC(C(=O)O)C2)cccc1-c1nsc(-c2ccc(OC(C)C)c(Cl)c2)n1 [Example 23, 1-{2-[3-(5-{3-chloro-4-[(1-methylethyl)oxy]phenyl}-1,2,4-thiadiazol-3-yl)-2-ethylphenyl]ethyl}-3-azetidinecarboxylic acid trifluoroacetate]	< 1 nM	–
CCc1c(CCN2CCC(C(=O)O)CC2)cccc1-c1nsc(-c2ccc(OC(C)C)c(Cl)c2)n1 [Example 24, 1-{2-[3-(5-{3-chloro-4-[(1-methylethyl)oxy]phenyl}-1,2,4-thiadiazol-3-yl)-2-ethylphenyl]ethyl}-4-piperidinecarboxylic acid trifluoroacetate]	< 1 nM	–
CCc1c(CN2CC(C(=O)O)C2)cccc1-c1nsc(-c2ccc(OC(C)C)c(Cl)c2)n1 [Example 25, 1-{[3-(5-{3-chloro-4-[(1-methylethyl)oxy]phenyl}-1,2,4-thiadiazol-3-yl)-2-ethylphenyl]methyl}-3-azetidinecarboxylic acid trifluoroacetate]	≤ 10 nM	–
CCc1c(CN2CC(C(=O)O)C2)cccc1-c1nsc(-c2ccc(CC(C)C)c(C#N)c2)n1 [Example 27, 1-[(3-{5-[3-cyano-4-(2-methylpropyl)phenyl]-1,2,4-thiadiazol-3-yl}-2-ethylphenyl)methyl]-3-azetidinecarboxylic acid trifluoroacetate]	≤ 10 nM	–
CCc1c(CN2CCC(C(=O)O)CC2)cccc1-c1nsc(-c2ccc(CC(C)C)c(C#N)c2)n1 [Example 28, 1-[(3-{5-[3-cyano-4-(2-methylpropyl)phenyl]-1,2,4-thiadiazol-3-yl}-2-ethylphenyl)methyl]-4-piperidinecarboxylic acid]	–	> 10000 nM

Now from value to compound:

EC50 [1]	EC50 [2]	Structure (SMILES)
< 1 nM	–	CCc1c(CCN2CCC(C(=O)O)CC2)cccc1-c1nsc(-c2ccc(CC(C)C)c(C#N)c2)n1 [Example 29, 1-[2-(3-{5-[3-cyano-4-(2-methylpropyl)phenyl]-1,2,4-thiadiazol-3-yl}-2-ethylphenyl)ethyl]-4-piperidinecarboxylic acid trifluoroacetate]
≤ 10 nM	–	CCc1c(CN2CCC(C(=O)O)CC2)cccc1-c1cnc(-c2ccc(OC(C)C)c(C#N)c2)s1 [Example 35, 1-{[3-(2-{3-cyano-4-[(1-methylethyl)oxy]phenyl}-1,3-thiazol-5-yl)-2-ethylphenyl]methyl}-4-piperidinecarboxylic acid trifluoroacetate]
< 1 nM	–	CCc1c(CCN2CCC(C(=O)O)CC2)cccc1-c1cnc(-c2ccc(OC(C)C)c(Cl)c2)s1 [Example 40, 1-{2-[3-(2-{3-chloro-4-[(1-methylethyl)oxy]phenyl}-1,3-thiazol-5-yl)-2-ethylphenyl]ethyl}-4-piperidinecarboxylic acid trifluoroacetate]
–	> 3160 nM	CCc1c(CCN2CCC(C(=O)O)C2)cccc1-c1nsc(-c2ccc(OC(C)C)c(Cl)c2)n1 (stereo not drawn) [Example 67]
–	> 3160 nM	CCc1c(CCN2CC[C@H](C(=O)O)C2)cccc1-c1nsc(-c2ccc(OC(C)C)c(Cl)c2)n1 [Example 68]
–	> 3160 nM	CCc1c(CCN2CCC[C@H](C(=O)O)C2)cccc1-c1nsc(-c2ccc(OC(C)C)c(Cl)c2)n1 [Example 71]
–	> 10000 nM	CCc1c(CN2CCC[C@H]2C(=O)O)cccc1-c1cnc(-c2ccc(OC(C)C)c(C#N)c2)s1 [Example 81, 1-{[3-(2-{3-cyano-4-[(1-methylethyl)oxy]phenyl}-1,3-thiazol-5-yl)-2-ethylphenyl]methyl}-L-proline trifluoroacetate]
–	> 10000 nM	CCc1c(CN2C[C@H](O)C[C@H]2C(=O)O)cccc1-c1cnc(-c2ccc(OC(C)C)c(C#N)c2)s1 [Example 85]
–	> 10000 nM	CCc1c(CN2CCCC(C(=O)O)C2)cccc1-c1cnc(-c2ccc(OC(C)C)c(C#N)c2)s1 (stereo not drawn) [Example 86]
–	> 10000 nM	CCc1c(CCN2CCC[C@@H]2C(=O)O)cccc1-c1cnc(-c2ccc(OC(C)C)c(C#N)c2)s1 [Example 89]
< 1 nM	–	CCc1c(CCN2CCC(C(=O)O)C2)cccc1-c1cnc(-c2ccc(OC(C)C)c(C#N)c2)s1 (stereo not drawn) [Example 90]
